The record followed here is PubChem BioAssay AID330 (DTP/NCI, 2004).

The structures appear in SMILES notation. Several values for one entry are separate records, joined by “and”; a condition that tells them apart may be missing. Equal values may be shown once. Toxic doses and inconclusive results are not listed.

In this experiment the test system is P388 leukemia ip, CD2F1 mice, survival T/C. The experiment in a line: NCI In Vivo Anticancer Drug Screen. Data for tumor model P388 Leukemia (intraperitoneal) in CD2F1 (CDF1) mice. The note with it: endpoint: median survival time, higher = longer survival. In outline:
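Mice carrying the transplanted tumor received test compound or vehicle. Survival was recorded in each group, and the value is the treated-group measurement divided by that of the vehicle-treated control group.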

Where [1] appears, read: dose: 50.0 mg/kg/injection, schedule: Q01DX009 (ip), vehicle: saline.
[2] abbreviates: dose: 100.0 mg/kg/injection, schedule: Q01DX009 (ip), vehicle: saline.
Where [3] appears, read: dose: 200.0 mg/kg/injection, schedule: Q01DX009 (ip), vehicle: saline.
Where [4] appears, read: dose: 12.5 mg/kg/injection, schedule: Q01DX005 (ip), vehicle: saline with Tween-80.
[5] abbreviates: dose: 25.0 mg/kg/injection, schedule: Q01DX005 (ip), vehicle: saline with Tween-80.
Where [6] appears, read: dose: 50.0 mg/kg/injection, schedule: Q01DX005 (ip), vehicle: saline with Tween-80.
The mark [7] stands for this setting: dose: 50.0 mg/kg/injection, schedule: Q01DX005 (ip), vehicle: Klucel (hydroxypropylcellulose) (HPC).
The mark [8] stands for this setting: dose: 100.0 mg/kg/injection, schedule: Q01DX005 (ip), vehicle: Klucel (hydroxypropylcellulose) (HPC).
[9] abbreviates: dose: 200.0 mg/kg/injection, schedule: Q01DX005 (ip), vehicle: Klucel (hydroxypropylcellulose) (HPC).
Where [10] appears, read: dose: 25.0 mg/kg/injection, schedule: Q01DX009 (ip), vehicle: saline with Tween-80.
Where [11] appears, read: dose: 50.0 mg/kg/injection, schedule: Q01DX009 (ip), vehicle: saline with Tween-80.
[12] abbreviates: dose: 100.0 mg/kg/injection, schedule: Q01DX009 (ip), vehicle: saline with Tween-80.
Setting [13] is: dose: 50.0 mg/kg/injection, schedule: Q01DX009 (ip), vehicle: Klucel (hydroxypropylcellulose) (HPC).
Where [14] appears, read: dose: 100.0 mg/kg/injection, schedule: Q01DX009 (ip), vehicle: Klucel (hydroxypropylcellulose) (HPC).
[15] abbreviates: dose: 200.0 mg/kg/injection, schedule: Q01DX009 (ip), vehicle: Klucel (hydroxypropylcellulose) (HPC).

Take `CC(=N\O)/C(C)=N/Nc1ccccc1Cl`: the T/C under setting [1] was 98 % of control, the T/C under setting [2] is 104 % of control and the T/C under setting [3] is 89 % of control.

On to `CCN(CC)CC(C)Nc1ccc(C)c2sc3ccccc3c(=O)c12` (stereo unspecified), for which the T/C reads like this: (dose: 75.0 mg/kg/injection, schedule: Q01DX009 (ip), vehicle: saline) 175 % of control; (dose: 300.0 mg/kg/injection, schedule: Q01DX009 (ip), vehicle: saline) 100 % of control.

Regarding `COc1ccc2c(c1)[C@@]13CCCCC1[C@@H](C2)N(CC1CC1)CC3` (stereo partly specified), the T/C by setting is: (dose: 100.0 mg/kg/injection, schedule: Q01DX001 (ip), vehicle: Klucel (hydroxypropylcellulose) (HPC)) 100 % of control; (dose: 200.0 mg/kg/injection, schedule: Q01DX001 (ip), vehicle: Klucel (hydroxypropylcellulose) (HPC)) 100 % of control.

On to `Cc1cc2c(cc1NCc1ccccc1)C(C)C(=O)CCC(=O)N2Cc1ccccc1` (stereo unspecified), for which the T/C by setting is: under setting [4], 101 % of control; under setting [5], 99 % of control; under setting [6], 90 % of control and 94 % of control.

As for `O=S(=O)(C1=NOC(c2ccccc2)C1)c1ccccc1` (stereo unspecified), the T/C reads like this: under setting [7], 99 % of control; under setting [8], 95 % of control; under setting [9], 93 % of control.

For `C[Si](C)(C)Cn1ccc(=O)n(C[Si](C)(C)C)c1=O`, the T/C reads like this: under setting [6], 107 % of control; (dose: 100.0 mg/kg/injection, schedule: Q01DX005 (ip), vehicle: saline with Tween-80) 101 % of control; (dose: 200.0 mg/kg/injection, schedule: Q01DX005 (ip), vehicle: saline with Tween-80) 107 % of control.

Consider `O=c1c2c([nH]n1-c1ccccc1)-c1ccccc1CS2`, for which the T/C runs as follows: under setting [10], 105 % of control; under setting [11], 104 % of control; under setting [12], 117 % of control.

Take `COC(CN(C)C)C(Cl)(Cl)Cl` (stereo unspecified): the T/C reads like this: under setting [13], 103 % of control; under setting [14], 108 % of control; under setting [15], 101 % of control.

Take `COC(=O)C1=NNc2ccccc2C(OC(C)=O)C1C` (stereo unspecified): the T/C by setting is: (dose: 100.0 mg/kg/injection, schedule: Q01DX001 (ip), vehicle: saline with Tween-80) 90 % of control; (dose: 200.0 mg/kg/injection, schedule: Q01DX001 (ip), vehicle: saline with Tween-80) 96 % of control; (dose: 400.0 mg/kg/injection, schedule: Q01DX001 (ip), vehicle: saline with Tween-80) 97 % of control.

As to `CN1CCCC1CN1CCCC1` (stereo unspecified), the T/C is 107 % of control (dose: 50.0 mg/kg/injection, schedule: Q01DX005 (ip), vehicle: saline); 102 % of control (dose: 100.0 mg/kg/injection, schedule: Q01DX005 (ip), vehicle: saline); 98 % of control (dose: 200.0 mg/kg/injection, schedule: Q01DX005 (ip), vehicle: saline).

Turning to `Fc1nn2ccccc2c1C(F)(F)F`, the T/C was 99 % of control under setting [7], 104 % of control under setting [8] and 100 % of control under setting [9].

As for `CC(C)N(CCCO)CCCO`, the T/C under setting [1] was 97 % of control, the T/C under setting [2] was 93 % of control and the T/C under setting [3] is 102 % of control.

Turning to `COC1=CCC2=C(CCN(C)C2Cc2ccc(OC)cc2)C1` (stereo unspecified), the T/C runs as follows: (dose: 12.5 mg/kg/injection, schedule: Q01DX005 (ip), vehicle: Klucel (hydroxypropylcellulose) (HPC)) 97 % of control; (dose: 25.0 mg/kg/injection, schedule: Q01DX005 (ip), vehicle: Klucel (hydroxypropylcellulose) (HPC)) 96 % of control; under setting [7], 100 % of control.

As to `O=C1C=C(C2OC(CI)C(O)C2O)C(=O)N1` (stereo unspecified), the T/C (dose: 1.56 mg/kg/injection, schedule: Q01DX009 (ip), vehicle: water) was 113 % of control; the T/C (dose: 3.13 mg/kg/injection, schedule: Q01DX009 (ip), vehicle: water) is 112 % of control; the T/C (dose: 6.25 mg/kg/injection, schedule: Q01DX009 (ip), vehicle: water) is 118 % of control; the T/C (dose: 12.5 mg/kg/injection, schedule: Q01DX009 (ip), vehicle: water) was 109 % of control; the T/C (dose: 25.0 mg/kg/injection, schedule: Q01DX009 (ip), vehicle: water) is 118 % of control.

For `CCCCCCCCCSc1ccc(C(=O)O)cc1`, the T/C is 109 % of control under setting [12]; 103 % of control (dose: 200.0 mg/kg/injection, schedule: Q01DX009 (ip), vehicle: saline with Tween-80); 105 % of control (dose: 400.0 mg/kg/injection, schedule: Q01DX009 (ip), vehicle: saline with Tween-80).

As to `CC(c1ccccc1)C1NC(=O)NC1=O` (stereo unspecified), the T/C under setting [10] was 117 % of control, the T/C under setting [11] was 106 % of control and the T/C under setting [12] was 106 % of control.

`COc1ccc(C(C)c2cc3c(cc2O)OCO3)cc1` (stereo unspecified): the T/C is 105 % of control (dose: 50.0 mg/kg/injection, schedule: Q01DX005 (ip), vehicle: distilled water + Tween-80); 99 % of control (dose: 100.0 mg/kg/injection, schedule: Q01DX005 (ip), vehicle: distilled water + Tween-80); 108 % of control (dose: 200.0 mg/kg/injection, schedule: Q01DX005 (ip), vehicle: distilled water + Tween-80).

On to `O=C(O)/C=C\C(=O)Nc1ccccc1NC(=O)/C=C/C(=O)O`, for which the T/C runs as follows: (dose: 100.0 mg/kg/injection, schedule: Q04DX003 (ip), vehicle: saline) 91 % of control; (dose: 200.0 mg/kg/injection, schedule: Q04DX003 (ip), vehicle: saline) 100 % of control; (dose: 400.0 mg/kg/injection, schedule: Q04DX003 (ip), vehicle: saline) 87 % of control.

As for `C[As](C)SCCO`, the T/C was 110 % of control under setting [4]; 115 % of control under setting [5]; 117 % of control under setting [6]; 109 % of control (dose: 50.0 mg/kg/injection, schedule: Q04DX002 (ip), vehicle: saline with Tween-80).

With `Cc1ccc(C)c(NC(=O)Nc2ccc(CCO)cc2)c1`, the T/C by setting is: under setting [13], 102 % of control; under setting [14], 102 % of control; under setting [15], 99 % of control.

In the case of `c1ccc(OP2(Oc3ccccc3)=NP(Oc3ccccc3)(Oc3ccccc3)=NP(Oc3ccccc3)(Oc3ccccc3)=NP(Oc3ccccc3)(Oc3ccccc3)=N2)cc1`, the T/C was 97 % of control under setting [7] and 91 % of control under setting [8].

`Cc1ccc(I)c(C(C)(C)O)c1`: the T/C under setting [13] was 100 % of control, the T/C under setting [14] was 95 % of control and the T/C under setting [15] was 97 % of control.

As for `COc1cc([N+](=O)[O-])ccc1N=Cc1cccs1`, the T/C runs as follows: under setting [1], 97 % of control; under setting [2], 93 % of control; under setting [3], 101 % of control.

Take `ClC1=CC=c2ccc3c(c2[N-]1)[N-]C(Cl)=CC=3.ClC1=CC=c2ccc3c(c2[N-]1)[N-]C(Cl)=CC=3.O=[N+]([O-])O.[Cu+]`: the T/C runs as follows: (dose: 6.25 mg/kg/injection, schedule: Q04DX002 (ip), vehicle: suspension in saline) 101 % of control; (dose: 12.5 mg/kg/injection, schedule: Q04DX002 (ip), vehicle: suspension in saline) 93 % of control; (dose: 25.0 mg/kg/injection, schedule: Q04DX002 (ip), vehicle: suspension in saline) 98 % of control.

With `O=C(CCl)Nc1nc(NC(=O)CCl)nc(NC(=O)CCl)n1`, the T/C (dose: 100.0 mg/kg/injection, schedule: Q04DX002 (ip), vehicle: saline) was 96 % of control; the T/C (dose: 200.0 mg/kg/injection, schedule: Q04DX002 (ip), vehicle: saline) is 96 % of control; the T/C (dose: 400.0 mg/kg/injection, schedule: Q04DX002 (ip), vehicle: saline) is 95 % of control.

As to `CN1CC(CO)=CC2c3cccc4[nH]cc(c34)CC21` (stereo unspecified), the T/C is 111 % of control under setting [10], 104 % of control under setting [11] and 104 % of control under setting [12].

`CCC1COc2nc(=O)c(C=NCCCN(C)C)c(N)n21` (stereo unspecified): the T/C (dose: 60.0 mg/kg/injection, schedule: Q01DX005 (ip), vehicle: saline) is 100 % of control; the T/C (dose: 120.0 mg/kg/injection, schedule: Q01DX005 (ip), vehicle: saline) is 105 % of control; the T/C (dose: 240.0 mg/kg/injection, schedule: Q01DX005 (ip), vehicle: saline) is 99 % of control.
